Measurements: US9765065B2, “Therapeutic substituted cyclopentanes” (ALLERGAN, INC., priority 2007, dated 2017)

Columns and labels:
hEP3A = target: T1, hEP3A (Homo sapiens, UniProt P43115); experiment: Other receptors hEP3A; format: cell-based
T1 sequence (P43115 1-390): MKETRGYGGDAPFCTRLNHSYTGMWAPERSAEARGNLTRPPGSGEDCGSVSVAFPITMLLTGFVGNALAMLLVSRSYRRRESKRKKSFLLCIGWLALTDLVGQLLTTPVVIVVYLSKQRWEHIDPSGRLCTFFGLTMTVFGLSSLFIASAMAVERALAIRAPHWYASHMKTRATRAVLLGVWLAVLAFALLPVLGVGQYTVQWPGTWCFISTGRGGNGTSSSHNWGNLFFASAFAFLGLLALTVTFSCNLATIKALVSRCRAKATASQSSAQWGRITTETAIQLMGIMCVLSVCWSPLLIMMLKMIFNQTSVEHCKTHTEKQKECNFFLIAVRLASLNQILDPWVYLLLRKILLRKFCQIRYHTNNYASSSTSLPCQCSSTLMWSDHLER
From the text: (§1) U.S. patent application Ser. No. 11/553,143, filed on Oct. 26, 2006, incorporated by reference herein in its entirety, describes the methods used to obtain the in vitro data in the table below.

EP2 [1] = target: T2, EP2 (Homo sapiens, UniProt P43116); experiment: EP2 cAMP; format: cell-based
T2 sequence (P43116 whole entry): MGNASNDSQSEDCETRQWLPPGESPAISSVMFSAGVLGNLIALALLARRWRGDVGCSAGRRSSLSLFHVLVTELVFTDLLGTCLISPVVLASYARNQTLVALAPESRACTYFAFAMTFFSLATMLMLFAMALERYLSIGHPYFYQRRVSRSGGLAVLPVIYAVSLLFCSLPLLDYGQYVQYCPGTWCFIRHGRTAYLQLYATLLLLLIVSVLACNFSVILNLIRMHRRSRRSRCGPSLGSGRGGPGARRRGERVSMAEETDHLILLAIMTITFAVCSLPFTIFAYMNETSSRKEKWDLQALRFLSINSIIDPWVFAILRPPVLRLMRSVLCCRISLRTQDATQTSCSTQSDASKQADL
From the text: as §1

EP4 [2] = target: T3, EP4 (Homo sapiens, UniProt P35408); experiment: EP4 flipr; format: cell-based
T3 sequence (P35408 whole entry): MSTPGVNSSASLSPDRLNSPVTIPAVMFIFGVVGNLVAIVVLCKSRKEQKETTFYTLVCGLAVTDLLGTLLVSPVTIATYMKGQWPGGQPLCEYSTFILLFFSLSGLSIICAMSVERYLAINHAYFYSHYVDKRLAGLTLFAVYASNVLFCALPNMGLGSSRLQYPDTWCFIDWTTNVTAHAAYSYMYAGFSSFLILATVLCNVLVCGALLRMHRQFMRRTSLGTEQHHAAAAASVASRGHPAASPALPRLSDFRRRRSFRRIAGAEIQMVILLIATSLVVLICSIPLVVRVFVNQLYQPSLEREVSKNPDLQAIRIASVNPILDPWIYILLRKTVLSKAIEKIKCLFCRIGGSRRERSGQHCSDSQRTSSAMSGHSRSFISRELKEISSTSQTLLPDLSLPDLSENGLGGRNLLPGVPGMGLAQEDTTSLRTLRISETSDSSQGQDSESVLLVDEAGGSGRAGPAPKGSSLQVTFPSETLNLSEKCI
From the text: as §1

EP2 [3] = target: T2, EP2; experiment: EP2 flipr; format: cell-based
From the text: as §1

EP4 [4] = target: T3, EP4; experiment: EP4 binding Ki
From the text: as §1

EP2 [5] = target: T2, EP2; experiment: EP2 binding Ki
From the text: as §1

hDP = target: T4, hDP (Homo sapiens, UniProt Q13258); experiment: Other receptors hDP; format: cell-based
T4 sequence (Q13258 1-359): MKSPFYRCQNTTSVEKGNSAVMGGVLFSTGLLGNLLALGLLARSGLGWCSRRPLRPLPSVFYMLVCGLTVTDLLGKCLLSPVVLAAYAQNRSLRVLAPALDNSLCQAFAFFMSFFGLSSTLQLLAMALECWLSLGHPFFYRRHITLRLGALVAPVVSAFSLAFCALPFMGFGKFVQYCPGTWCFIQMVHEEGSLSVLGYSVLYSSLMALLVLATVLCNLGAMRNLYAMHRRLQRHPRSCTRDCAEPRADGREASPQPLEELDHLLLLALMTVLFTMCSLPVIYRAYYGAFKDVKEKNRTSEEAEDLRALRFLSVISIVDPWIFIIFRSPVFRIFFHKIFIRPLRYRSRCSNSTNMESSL
From the text: as §1

hTP = target: T5, hTP (Homo sapiens, UniProt P21731); experiment: Other receptors hTP; format: cell-based
T5 sequence (P21731 1-343): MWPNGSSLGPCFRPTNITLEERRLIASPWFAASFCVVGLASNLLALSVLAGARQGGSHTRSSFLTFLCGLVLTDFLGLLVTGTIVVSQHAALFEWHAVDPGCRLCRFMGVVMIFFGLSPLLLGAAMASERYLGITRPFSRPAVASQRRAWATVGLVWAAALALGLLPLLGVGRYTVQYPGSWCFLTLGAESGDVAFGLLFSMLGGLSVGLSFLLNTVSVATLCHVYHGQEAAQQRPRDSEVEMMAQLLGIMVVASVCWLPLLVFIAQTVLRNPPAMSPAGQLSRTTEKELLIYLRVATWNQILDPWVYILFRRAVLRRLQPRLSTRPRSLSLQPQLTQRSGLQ
From the text: as §1

Compound: N#C[C@@H]1C[C@@H](O)[C@H](C#Cc2ccccc2)[C@H]1CCCc1ccc(C(=O)O)s1 [Example 22, 5-(3-((1S,2S,3R,5R)-5-cyano-3-hydroxy-2-(phenylethynyl)cyclopentyl)propyl)thiophene-2-carboxylic acid]
- EC50 (hEP3A): > 10000 nM
- EC50 (EP2 [1]): 0.18 nM
- EC50 (EP4 [2]): 21200 nM
- EC50 (EP2 [3]): 235 nM
- Ki (EP4 [4]): 587 nM
- Ki (EP2 [5]): 13 nM

Compound: O=C(O)c1ccc(CCC[C@@H]2[C@@H](/C=C\c3cc(Cl)nc(Cl)c3)[C@H](O)C[C@H]2Cl)s1 [Example 5, 5-(3-((1R,2R,3R,5R)-5-chloro-2-((Z)-2-(2,6-dichloropyridin-4-yl)vinyl)-3-hydroxycyclopentyl)propyl)-thiophene-2-carboxylic acid]
- EC50 (EP2 [1]): 3 nM
- EC50 (EP4 [2]): 1920 nM
- EC50 (EP2 [3]): 458 nM
- EC50 (hDP): 2100 nM
- Ki (EP4 [4]): 1990 nM
- Ki (EP2 [5]): 38 nM

Compound: O=C(O)c1ccc(CCC[C@@H]2[C@@H](C#Cc3ccccc3)[C@H](O)C[C@H]2F)s1 [Example 19, 5-(3-((1R,2S,3R,5R)-5-fluoro-3-hydroxy-2-(phenylethynyl)cyclopentyl)propyl)thiophene-2-carboxylic acid]
- EC50 (hEP3A): > 10000 nM
- EC50 (EP2 [1]): 0.23 nM
- EC50 (EP4 [2]): 26600 nM
- EC50 (EP2 [3]): 349 nM
- Ki (EP4 [4]): 1020 nM
- Ki (EP2 [5]): 4 nM

Compound: O=C(O)c1csc(SCC[C@@H]2[C@@H](/C=C/c3cc(Cl)cc(Cl)c3)[C@H](O)C[C@H]2Cl)n1 [Example 14, 2-(2-((1R,2R,3R,5R)-5-chloro-2-(3,5-dichlorostyryl)-3-hydroxycyclopentyl)ethylthio)thiazole-4-carboxylic acid]
- EC50 (hEP3A): 3880 nM
- EC50 (EP2 [1]): 0.04 nM
- EC50 (EP4 [2]): 3460 nM
- EC50 (EP2 [3]): 7 nM
- Ki (EP4 [4]): 616 nM
- Ki (EP2 [5]): 1.2 nM

Compound: O=C(O)c1ccc(CCC[C@@H]2[C@@H](C#Cc3cccs3)[C@H](O)C[C@H]2Cl)s1 [Example 28, 5-(3-((1R,2S,3R,5R)-5-chloro-3-hydroxy-2-(thiophen-2-ylethynyl)cyclopentyl)propyl)thiophene-2-carboxylic acid]
- EC50 (hEP3A): 6520 nM
- EC50 (EP2 [1]): 0.8 nM
- EC50 (EP4 [2]): 5880 nM
- EC50 (hDP): 18300 nM
- Ki (EP4 [4]): 825 nM
- Ki (EP2 [5]): 10 nM

Compound: C=CCCc1cccc(/C=C/[C@@H]2[C@@H](CCCc3ccc(C(=O)O)s3)[C@H](Cl)C[C@H]2O)c1 [Example 9, 5-(3-((1R,2R,3R,5R)-2-(3-(but-3-enyl)styryl)-5-chloro-3-hydroxycyclopentyl)propyl)thiophene-2-carboxylic acid]
- EC50 (hEP3A): 5780 nM
- EC50 (EP2 [1]): 0.03 nM
- EC50 (EP4 [2]): 17300 nM
- EC50 (EP2 [3]): 72 nM
- Ki (EP4 [4]): 288 nM
- Ki (EP2 [5]): 0.7 nM

Compound: O=C(O)c1ccc(CCC[C@@H]2[C@@H](/C=C/c3cc(F)cc(F)c3)[C@H](O)C[C@H]2Cl)s1 [Example 6, 5-(3-((1R,2R,3R,5R)-5-chloro-2-((E)-3,5-difluorostyryl)-3-hydroxycyclopentyl)propyl)thiophene-2-carboxylic acid]
- EC50 (EP2 [1]): 0.3 nM
- EC50 (hTP): 65300 nM
- EC50 (EP4 [2]): > 10000 nM
- EC50 (EP2 [3]): 22 nM
- Ki (EP4 [4]): 878 nM
- Ki (EP2 [5]): 7 nM

Compound: Cc1cccc(/C=C/[C@@H]2[C@@H](CCCc3ccc(C(=O)O)s3)[C@H](Cl)C[C@H]2O)c1 [Example 12, 5-(3-((1R,2R,3R,5R)-5-chloro-3-hydroxy-2-(3-methylstyryl)cyclopentyl)propyl)thiophene-2-carboxylic acid]
- EC50 (hEP3A): 9880 nM
- EC50 (EP2 [1]): 0.1 nM
- EC50 (hTP): 3760 nM
- EC50 (EP4 [2]): 16900 nM
- EC50 (EP2 [3]): 17 nM
- EC50 (hDP): 12300 nM
- Ki (EP4 [4]): 144 nM
- Ki (EP2 [5]): 2 nM

Compound: O=C(O)c1ccc(CCC[C@@H]2[C@@H](/C=C/c3cc(Cl)cc(CO)c3)[C@H](O)C[C@H]2Cl)s1 [Example 2, 5-(3-((1R,2R,3R,5R)-5-chloro-2-(3-chloro-5-(hydroxymethyl)styryl)-3-hydroxycyclopentyl)propyl)-thiophene-2-carboxylic acid]
- EC50 (EP2 [1]): 0.13 nM
- EC50 (EP4 [2]): > 10000 nM
- EC50 (EP2 [3]): 85 nM
- EC50 (hDP): > 10000 nM
- Ki (EP4 [4]): 135 nM
- Ki (EP2 [5]): 2 nM

Compound: O=C(O)c1csc(SCC[C@@H]2[C@@H](C#Cc3cc(Cl)cc(Cl)c3)[C@H](O)C[C@H]2Cl)n1 [Example 34, 2-(2-((1R,2S,3R,5R)-5-chloro-2-((3,5-dichlorophenyl)ethynyl)-3-hydroxycyclopentyl)ethylthio)thiazole-4-carboxylic acid]
- EC50 (hEP3A): 2880 nM
- EC50 (EP2 [1]): 0.16 nM
- EC50 (EP4 [2]): 3.3 nM
- EC50 (hDP): 14800 nM
- Ki (EP4 [4]): 60 nM
- Ki (EP2 [5]): 1.5 nM

Compound: O=C(O)c1csc(SCC[C@@H]2[C@@H](C#Cc3ccccc3)[C@H](O)C[C@H]2Cl)n1 [Example 35, 2-(2-((1R,2S,3R,5R)-5-chloro-3-hydroxy-2-(phenylethynyl)cyclopentyl)ethylthio)thiazole-4-carboxylic acid]
- EC50 (hEP3A): 1500 nM
- EC50 (EP2 [1]): 0.08 nM
- EC50 (EP4 [2]): 10 nM
- EC50 (hDP): 1030 nM
- Ki (EP4 [4]): 463 nM
- Ki (EP2 [5]): 5 nM

Compound: O=C(O)c1ccc(CCC[C@@H]2[C@@H](/C=C\c3cc(F)cc(F)c3)[C@H](O)C[C@H]2Cl)s1 [Example 7, 5-(3-((1R,2R,3R,5R)-5-chloro-2-((Z)-3,5-difluorostyryl)-3-hydroxycyclopentyl)propyl)thiophene-2-carboxylic acid]
- EC50 (EP2 [1]): 207 nM
- EC50 (hTP): 95 nM
- EC50 (EP2 [3]): 7140 nM
- EC50 (hDP): 6370 nM
- Ki (EP4 [4]): 3220 nM
- Ki (EP2 [5]): 425 nM

Compound: O=C(O)c1ccc(C=CC[C@@H]2[C@@H](C=Cc3cc(Cl)cc(Cl)c3)[C@H](O)C[C@H]2Cl)s1 [Example 1, 5-(3-((1R,2R,3R,5R)-5-chloro-2-(3,5-dichlorostyryl)-3-hydroxycyclopentyl)prop-1-enyl)thiophene-2-carboxylic acid]
- EC50 (hEP3A): > 10000 nM
- EC50 (EP2 [1]): 0.2 nM
- EC50 (hTP): > 10000 nM
- EC50 (EP4 [2]): > 10000 nM
- EC50 (EP2 [3]): 37 nM
- Ki (EP4 [4]): 440 nM
- Ki (EP2 [5]): 2.2 nM
